SMILES strings stand for the structures.

A short description of data set [1]: Final pH of treated solution. It counts as physicochemical. To be noted: 0.2 grams of reagent; water 4.36. An excerpt: The basicity of certain reagents was examined in terms of the reagents' relative ability to recover iodine. […] The amount of each reagent was 0.2 grams.
For data set [2] the following is noted: cited from earlier work.

On to `O=C(O)O` [CaCO3, Calcium carbonate], for which the “Final pH of Treated Solution” value in data set [1] turned out to be 7.12.
Consider `[O]=[Ca]` [CaO, calcium oxide], for which the “Final pH of Treated Solution” value in data set [1] was 12.34. Also, the “Water Solubility” value in data set [2] is reported as 0.131 g/100 cc.
For `[O]=[Mg]` [MgO, magnesium oxide], in data set [1], the “Final pH of Treated Solution” value was 7.33. For the same compound, the “Water Solubility” value in data set [2] was 0.001 g/100 cc.
Regarding `[Ca+2].[OH-].[OH-]` [Ca(OH)2, calcium hydroxide], the “Final pH of Treated Solution” value in data set [1] came to 12.23.
Regarding `O=C(O)O` [MgCO3, magnesium carbonate], in data set [1], the “Final pH of Treated Solution” value was 7.96.
The same measure, in the same setting: to `[Mg+2].[OH-].[OH-]` [Mg(OH)2, magnesium hydroxide] belongs 8.86.
